“And” between values parts separate entries of the source, which are not always exact repeats. Equal values may be shown once.
These molecules were tested against SARS-CoV-2 Main Protease (SARS-CoV-2) (UniProt P0DTD1).

`O=C(NCC(=O)N1CCCC1c1nc2ccccc2[nH]1)C1CCCC1` (configuration not stated) and `CCN1CCCC1C1CCCN1C(=O)CCc1c[nH]c2ccccc12` (configuration not stated) cannot be ordered by IC50: over 99.5 µM for the first, over 99.5 µM for the second.

`COc1cccc(C(NC(=O)Cc2cccc(Cl)c2)c2nc3ccccc3[nH]2)c1` (configuration not stated) and `COc1cc2cncc(NC(=O)Cc3cccc(Cl)c3)c2cc1F` cannot be ordered by IC50: over 99.5 µM for the first, over 99.5 µM for the second.

`CC(C)(C)c1ccc(N(C(=O)c2ccccc2)C(C(=O)NCCc2cccc(F)c2)c2cccnc2)cc1` (configuration not stated) and `CC(C)(C)c1ccc(N(C(=O)c2ccc(=O)[nH]n2)C(C(=O)NCCc2cccc(F)c2)c2cccnc2)cc1` (configuration not stated) cannot be ordered by IC50: over 99.5 µM for the first, over 99.5 µM for the second.

Compared with `Cc1ccncc1NC(=O)Cc1cc(Cl)cc(OCCN2CCOCC2C)c1` (configuration not stated), `COc1cc(Cl)c(C)cc1Nc1cc(Cl)cc(CC(=O)Nc2cncc3ccccc23)c1` is lower in IC50: over 99.5 µM for the first, 1.58 µM for the second. The second is the more potent here.

Compared with `O=C(Cc1cccc(Cl)c1)Nc1n[nH]c2ccnc(Br)c12`, `CN(c1ccc2c(NC(=O)Cc3cccc(Cl)c3)cncc2c1)S(C)(=O)=O` is lower in IC50: over 99.5 µM for the first, 2.7 µM for the second.

Compared with `O=C(NCCc1cccc(F)c1)C(c1cccnc1)N(C(=O)c1cocn1)c1ccc(-n2cc[nH]c2=O)cc1` (configuration not stated), `CS(=O)(=O)c1ccc(N(C(=O)c2cocn2)C(C(=O)NCCc2cccc(F)c2)c2cccnc2)cc1` (configuration not stated) is 1.7-fold higher in IC50: 45.1 µM for the first, 75.9 µM for the second.

Going from `O=C(c1cc(=O)[nH]c2ccccc12)N1CCN(c2cccc(Cl)c2)CC1` to `O=C(c1cc(=O)[nH]c2ccccc12)N1CCN(c2cccc(C(F)(F)F)c2)CC1`, the IC50 rises from 2.16 µM to 3.8 µM (1.8-fold).

Going from `CC(NCc1cnc2c(cnn2C)c1)c1nc2ccccc2s1` (configuration not stated) to `Cn1nncc1CC(=O)NC(c1ccccc1)c1nc2ccccc2n1C` (configuration not stated), the IC50 falls from over 99.5 µM to 35.7 µM. The second is the more potent here.

Compared with `O=C(Nc1ccc2ccccc2c1)[C@@H]1CN(C(=O)CCl)CCN1S(=O)(=O)c1ccsc1` (stereo in doubt), `O=C(Nc1cncc2ccccc12)C1CN(C(=O)c2ncco2)Cc2ccc(Cl)cc21` (configuration not stated) is 1.8-fold higher in IC50: 0.523 µM for the first, 0.918 µM for the second. The first is the more potent here.

Compared with `CCC1(C(=O)Nc2cncc3ccccc23)CNC(=O)c2ccc(Cl)cc21` (configuration not stated), `O=C(Nc1cncc2ccccc12)C1COCc2ccc(Cl)cc21` (configuration not stated) is 6.8-fold higher in IC50: 1.18 µM for the first, 8.08 µM for the second.

Compared with `O=C(Nc1ccc(N(C(=O)c2cocn2)C(C(=O)NCCc2cccc(F)c2)c2cccnc2)cc1)NC1CC1` (configuration not stated), `CC1(c2ccc(N(C(=O)c3cocn3)C(C(=O)NCCc3cccc(F)c3)c3cccnc3)cc2)OCCO1` (configuration not stated) is lower in IC50: over 99.5 µM for the first, 83.1 µM for the second.

Going from `CC1C(=O)NCCN1C(=O)CCCc1c[nH]c2ccccc12` (configuration not stated) to `COCCc1ccc(Cl)cc1CN1CCN(C(=O)CCl)CC1`, the IC50 falls from over 99.5 µM to 2.2 µM.

First: COc1ccc2cncc(N3CCC4(CN(S(=O)(=O)CC5(C#N)CC5)Cc5ccc(Cl)cc54)C3=O)c2c1 (configuration not stated)
Second: N#CC1(CS(=O)(=O)N2Cc3ccc(Cl)cc3C3(CCN(c4cncc5ccc(OCCCN6CCCC6)cc45)C3=O)C2)CC1 (configuration not stated)
The IC50 of the first is 1.7-fold higher: 0.215 µM for the first, 0.128 µM for the second. The second is the more potent here.

`CC(C)(C)c1ccc(N(C(=O)c2cc(=O)n3ncnc3[nH]2)C(C(=O)NCCc2cccc(F)c2)c2cccnc2)cc1` (configuration not stated) and `CC(c1ccccc1)N(C(=O)c1cnc[nH]1)C(C(=O)NCCc1cccc(F)c1)c1cccnc1` (configuration not stated) cannot be ordered by IC50: over 99.5 µM for the first, over 99 µM for the second.

Compared with `O=C(NCCc1cccc(F)c1)C(c1cccnc1)N(Cc1c(O)ccc2c1CCCC2)C(=O)c1ccco1` (configuration not stated), `O=C(NCCc1cccc(F)c1)C(c1cccnc1)N(C(=O)c1cocn1)C1Cc2ccccc21` (configuration not stated) is higher in IC50: 12.1 µM for the first, over 99.5 µM for the second. The first is the more potent here.

First: CNC(=O)c1ccc2cncc(NC(=O)C3CN(S(=O)(=O)CC4(C)CS(=O)(=O)C4)Cc4ccc(Cl)cc43)c2c1 (configuration not stated)
Second: COc1cc(Cl)cc2c1OCC[C@H]2C(=O)Nc1cncc2ccccc12 (stereo in doubt)
The IC50 of the first is lower: 0.11 µM for the first, over 99.5 µM for the second.

Compared with `O=C(Oc1cncc2ccccc12)C1CCOc2ccc(Cl)cc21` (configuration not stated), `O=C(Nc1cccc2c[nH]nc12)C1CCOc2ccc(Cl)cc21` (configuration not stated) is higher in IC50: 0.522 µM for the first, over 99.5 µM for the second.

First: COc1cc(CNc2cc(Cl)cc(CC(=O)Nc3cncc4ccccc34)c2)ccc1O
Second: O=C(NCc1cccc(Cl)c1)c1cncc2ccccc12
The IC50 of the first is 17-fold lower: 1.88 µM for the first, 32 µM for the second. The first is the more potent here.

`O=C(Cn1nnc2ccccc21)N(Cc1cccc(Cl)c1)c1ccc(N2CCOCC2)cc1` and `CN(C)c1ccc(N(Cc2cscn2)C(=O)Cn2nnc3ccccc32)cc1` are within 1.5-fold of each other in IC50: 3.7 µM for the first, 4.85 µM for the second.

`O=C(Nc1cncc2ccccc12)C1CCN(Cc2ccccc2)c2ccc(Cl)cc21` (configuration not stated) and `COC1(C(=O)Nc2cncc3ccncc23)CCOc2ccc(Cl)cc21` (configuration not stated) are within 1.5-fold of each other in IC50: 1.06 µM for the first, 0.832 µM for the second.

`Cc1ccc(-c2ccc(C(=O)N3CC[C@H](N)C3)c(F)c2)cc1` (stereo in doubt) and `O=C1CCc2cc(C(=O)N3CCC(C4CCNC4)CC3)ccc2N1` (configuration not stated) cannot be ordered by IC50: over 99.5 µM for the first, over 99.5 µM for the second.

Work on `NS(=O)(=O)C1Cc2ccccc2N(CCNS(=O)(=O)c2ccccc2)C1` (configuration not stated) yielded an IC50 of over 99.5 µM.

In the case of `CCCCCC(=O)SCCNC(=O)CCNC(=O)[C@H](O)C(C)(C)COP(=O)(O)OP(=O)(O)OC[C@H]1O[C@@H](n2cnc3c(N)ncnc32)[C@H](O)[C@@H]1OP(=O)(O)O` (stereo in doubt), the IC50 is reported as 46.1 µM and 85.1 µM.
In the case of `O=C(Nc1cnccc1CO)[C@@H]1COc2ccc(Cl)cc21` (stereo in doubt), the IC50 is reported as 42.7 µM and 42 µM.
For `CCCNC(=O)CN1CC(C(=O)Nc2cncc3ccccc23)c2cc(Cl)ccc2C1=O` (configuration not stated), the IC50 was 0.0864 µM and 0.174 µM.
`CC(NC(=O)COc1ccc(C(N)=O)cc1)(C(=O)Nc1cncc2ccccc12)c1ccc(Cl)c(Cl)c1` (configuration not stated) was tested, and the IC50 was 10.5 µM and 14.3 µM.
